Columns and labels:
[1] = pH adjustment of oritavancin/HPCD solution with 1N NaOH: visual observations; type: physicochemical
Procedure: Reconstituting Orbactiv 400 mg (Oritavancin) in 20% w/v HPCD, diluting in saline then adjusting pH. The 50 mg/mL solution of oritavancin in 20% w/v HPCD (described in Table 3) was further diluted in 0.9% saline to 6 mg/mL in a small glass vial. The pH was adjusted using 1N NaOH. NaOH was added to the oritavancin solution in […] and vortexed. Visual observations and pH were recorded (Table 5).
Reconstituting Orbactiv 400 mg (Oritavancin) in 50% w/v HPCD aqueous solution, adjusting pH then diluting in saline. 6.269 g of HPCD was dissolved in 12.538 mL of water to make a 50% w/v solution (pH=7.23). Seven (7) mL of the 50% w/v solution was added to a 400 mg vial of Orbactiv for a target oritavancin concentration of 57.14 mg/mL. […] A 2 mL aliquot of 57.14 mg/mL was removed from the vial and placed in a small glass vial. The pH was adjusted to 6.5 using 1N NaOH. NaOH was added to the oritavancin solution in 5 μL increments and vortexed. Visual observations and pH were recorded (Table 6).
Reconstituting Orbactiv 400 mg (Oritavancin) in 50% w/v aqueous HPCD, adjusting pH then diluting in saline. 6.112 g of HPCD was dissolved in 12.224 mL of water to make a 50% w/v solution (pH=6.74). Seven (7) mL of the 50% w/v HPCD solution was added to a 400 mg vial of Orbactiv for a target oritavancin concentration of 57.14 mg/mL. […] A 3 mL aliquot of 57.14 mg/mL was removed from the vial and placed in a small glass vial. The pH was adjusted to 7 using 1N NaOH. NaOH was added to the oritavancin solution in 5 μL increments and vortexed. Visual observations and pH were recorded (Table 8).
Reconstituting Orbactiv 400 mg (Oritavancin) in 20% w/v aqueous HPCD, adjusting pH then diluting in saline. 3.555 g of HPCD was dissolved in 17.775 mL of water to make a 20% w/v solution (pH=6.88). Seven (7) mL of the 20% w/v HPCD solution was added to a 400 mg vial of Orbactiv for a target oritavancin concentration of 57.14 mg/mL. […] A 3 mL aliquot of 57.14 mg/mL was removed from the vial and placed in a small glass vial. The pH was adjusted to 7 using 1N NaOH. NaOH was added to the oritavancin solution in 5 μL increments and vortexed. Visual observations and pH were recorded. (Table 10).

[2] = Reconstituted oritavancin/HPCD solution diluted in 0.9% saline: pH and observation for precipitation; type: physicochemical; settings: for pH: RT
[3] = 20% w/v HPCD reconstitution diluted to 5 mg/mL in 0.9% saline, rechecked one month later
[4] = 50% HPCD reconstitution diluted to 5 mg/mL in 0.9% saline, rechecked one month later

SMILES: CN[C@H](CC(C)C)C(=O)N[C@H]1C(=O)N[C@@H](CC(N)=O)C(=O)N[C@H]2C(=O)N[C@H]3C(=O)N[C@H](C(=O)N[C@H](C(=O)O)c4cc(O)cc(O)c4-c4cc3ccc4O)[C@H](O[C@H]3C[C@](C)(N)[C@@H](O)[C@H](C)O3)c3ccc(c(Cl)c3)Oc3cc2cc(c3O[C@@H]2O[C@H](CO)[C@@H](O)[C@H](O)[C@H]2O[C@H]2C[C@](C)(NCc3ccc(-c4ccc(Cl)cc4)cc3)[C@@H](O)[C@H](C)O2)Oc2ccc(cc2Cl)[C@H]1O [Oritavancin]
- Observations ([1]; 50% w/v HPCD reconstitution (2 mL aliquot), 1N NaOH 50 μL, pH 6.33, oritavancin 56.74 mg/mL): Clear, colorless solution.
- Observations ([1]; 50% w/v HPCD reconstitution (3 mL aliquot), 1N NaOH 0 μL, pH 4.05, oritavancin 57.14 mg/mL): Clear, colorless solution.
- Observations ([1]; 50% w/v HPCD reconstitution (3 mL aliquot), 1N NaOH 5 μL, pH 4.28, oritavancin 57.04 mg/mL): Clear, colorless solution
- Observations ([1]; 50% w/v HPCD reconstitution (3 mL aliquot), 1N NaOH 10 μL, pH 4.44, oritavancin 56.94 mg/mL): Clear, colorless solution
- Observations ([1]; 50% w/v HPCD reconstitution (3 mL aliquot), 1N NaOH 15 μL, pH 4.68, oritavancin 56.84 mg/mL): Clear, colorless solution
- Observations ([1]; 50% w/v HPCD reconstitution (3 mL aliquot), 1N NaOH 20 μL, pH 4.93, oritavancin 56.74 mg/mL): Clear, colorless solution
- Observations ([1]; 50% w/v HPCD reconstitution (3 mL aliquot), 1N NaOH 25 μL, pH 5.11, oritavancin 56.64 mg/mL): Clear, colorless solution
- Observations ([1]; 50% w/v HPCD reconstitution (3 mL aliquot), 1N NaOH 30 μL, pH 5.23, oritavancin 56.54 mg/mL): Clear, colorless solution
- Observations ([1]; 50% w/v HPCD reconstitution (3 mL aliquot), 1N NaOH 35 μL, pH 5.36, oritavancin 56.44 mg/mL): Clear, colorless solution
- Observations ([1]; 50% w/v HPCD reconstitution (3 mL aliquot), 1N NaOH 40 μL, pH 5.48, oritavancin 56.35 mg/mL): Clear, colorless solution.
- Observations ([1]; 50% w/v HPCD reconstitution (3 mL aliquot), 1N NaOH 45 μL, pH 5.77, oritavancin 56.24 mg/mL): Clear, colorless solution
- Observations ([1]; 50% w/v HPCD reconstitution (3 mL aliquot), 1N NaOH 50 μL, pH 5.82, oritavancin 56.14 mg/mL): Clear, colorless solution
- Observations ([1]; 50% w/v HPCD reconstitution (3 mL aliquot), 1N NaOH 55 μL, pH 5.85, oritavancin 56.03 mg/mL): Clear, colorless solution
- Observations ([1]; 50% w/v HPCD reconstitution (3 mL aliquot), 1N NaOH 60 μL, pH 5.94, oritavancin 55.93 mg/mL): Clear, colorless solution
- Observations ([1]; 50% w/v HPCD reconstitution (3 mL aliquot), 1N NaOH 65 μL, pH 6.05, oritavancin 55.83 mg/mL): Clear, colorless solution.
- Observations ([1]; 50% w/v HPCD reconstitution (3 mL aliquot), 1N NaOH 70 μL, pH 6.15, oritavancin 55.72 mg/mL): Clear, colorless solution
- Observations ([1]; 50% w/v HPCD reconstitution (3 mL aliquot), 1N NaOH 75 μL, pH 6.20, oritavancin 55.61 mg/mL): Clear, colorless solution
- Observations ([1]; 50% w/v HPCD reconstitution (3 mL aliquot), 1N NaOH 80 μL, pH 6.23, oritavancin 55.50 mg/mL): Clear, colorless solution
- Observations ([1]; 50% w/v HPCD reconstitution (3 mL aliquot), 1N NaOH 85 μL, pH 6.34, oritavancin 55.39 mg/mL): Clear, colorless solution
- Observations ([1]; 50% w/v HPCD reconstitution (3 mL aliquot), 1N NaOH 90 μL, pH 6.32, oritavancin 55.28 mg/mL): Clear, colorless solution
- Observations ([1]; 50% w/v HPCD reconstitution (3 mL aliquot), 1N NaOH 95 μL, pH 6.38, oritavancin 55.17 mg/mL): Clear, colorless solution
- Observations ([1]; 50% w/v HPCD reconstitution (3 mL aliquot), 1N NaOH 100 μL, pH 6.46, oritavancin 55.07 mg/mL): Clear, colorless solution.
- Observations ([1]; 50% w/v HPCD reconstitution (3 mL aliquot), 1N NaOH 105 μL, pH 6.57, oritavancin 54.95 mg/mL): Clear, colorless solution
- Observations ([1]; 50% w/v HPCD reconstitution (3 mL aliquot), 1N NaOH 110 μL, pH 6.59, oritavancin 54.84 mg/mL): Clear, colorless solution
- Observations ([1]; 50% w/v HPCD reconstitution (3 mL aliquot), 1N NaOH 115 μL, pH 6.71, oritavancin 54.73 mg/mL): Clear, colorless solution
- Observations ([1]; 50% w/v HPCD reconstitution (3 mL aliquot), 1N NaOH 120 μL, pH 6.70, oritavancin 54.61 mg/mL): Clear, colorless solution
- Observations ([1]; 50% w/v HPCD reconstitution (3 mL aliquot), 1N NaOH 125 μL, pH 6.75, oritavancin 54.50 mg/mL): Clear, colorless solution.
- Observations ([1]; 50% w/v HPCD reconstitution (3 mL aliquot), 1N NaOH 130 μL, pH 6.90, oritavancin 54.38 mg/mL): Clear, colorless solution
- Observations ([1]; 50% w/v HPCD reconstitution (3 mL aliquot), 1N NaOH 135 μL, pH 6.90, oritavancin 54.26 mg/mL): Clear, colorless solution
- Observations ([1]; 50% w/v HPCD reconstitution (3 mL aliquot), 1N NaOH 140 μL, pH 6.96, oritavancin 54.14 mg/mL): Clear, colorless solution.
- pH ([2]; 20% w/v HPCD reconstitution diluted in 0.9% saline: oritavancin 5 mg/mL, HPCD 2% w/v, 0 hr): 4.17
- pH ([2]; 20% w/v HPCD reconstitution diluted in 0.9% saline: oritavancin 5 mg/mL, HPCD 2% w/v, 0.08 hr): 4.17
- pH ([2]; 20% w/v HPCD reconstitution diluted in 0.9% saline: oritavancin 5 mg/mL, HPCD 2% w/v, 0.5 hr): 4.17
- pH ([2]; 20% w/v HPCD reconstitution diluted in 0.9% saline: oritavancin 5 mg/mL, HPCD 2% w/v, 1 hr): 4.17
- pH ([2]; 20% w/v HPCD reconstitution diluted in 0.9% saline: oritavancin 5 mg/mL, HPCD 2% w/v, 24 hr): 4.17
- pH ([2]; 20% w/v HPCD reconstitution diluted in 0.9% saline: oritavancin 5 mg/mL, HPCD 2% w/v, 720 hr): 4.32
- appearance / precipitation ([2]; 20% w/v HPCD reconstitution diluted to 5 mg/mL in 0.9% saline, for 24 hours): remained clear and colorless without any precipitation
- appearance [2, 3]: clear and colorless
- pH change [2, 3]: increased slightly
- appearance / precipitation ([2]; 20% w/v HPCD reconstitution diluted to 6 mg/mL in 0.9% saline): remained clear and colorless without any visible precipitation
- time for which no precipitation was observed ([2]; 20% w/v HPCD reconstitution pH adjusted (up to 7), diluted to 5 mg/mL in 0.9% saline): at least 12 hours
- appearance ([2]; 20% w/v HPCD reconstitution, diluted to 5 mg/mL in 0.9% saline, pH 6.5 and above, for 24 hours): maintained clear and colorless
- appearance / precipitation ([2]; 50% HPCD reconstitution diluted to 5 mg/mL in 0.9% saline, for 24 hours): remained clear and colorless without any precipitation
- appearance [2, 4]: clear and colorless
- pH change [2, 4]: increased slightly
- pH ([2]; 50% w/v HPCD reconstitution diluted in 0.9% saline: oritavancin 5 mg/mL, HPCD 5% w/v, 0 hr): 4.14
- pH ([2]; 50% w/v HPCD reconstitution diluted in 0.9% saline: oritavancin 5 mg/mL, HPCD 5% w/v, 0.08 hr): 4.14
- pH ([2]; 50% w/v HPCD reconstitution diluted in 0.9% saline: oritavancin 5 mg/mL, HPCD 5% w/v, 0.5 hr): 4.14
- pH ([2]; 50% w/v HPCD reconstitution diluted in 0.9% saline: oritavancin 5 mg/mL, HPCD 5% w/v, 1 hr): 4.14
- pH ([2]; 50% w/v HPCD reconstitution diluted in 0.9% saline: oritavancin 5 mg/mL, HPCD 5% w/v, 24 hr): 4.15
- pH ([2]; 50% w/v HPCD reconstitution diluted in 0.9% saline: oritavancin 5 mg/mL, HPCD 5% w/v, 720 hr): 4.26
- time for which no precipitation was observed ([2]; 50% w/v HPCD reconstitution pH adjusted (up to 6.3), diluted to 5 mg/mL in 0.9% saline): at least 1 hour
- time for which no precipitation was observed ([2]; 50% w/v HPCD reconstitution pH adjusted (up to 7), diluted to 5 mg/mL in 0.9% saline): at least 12 hours
- appearance ([2]; 50% w/v HPCD reconstitution pH adjusted, diluted to 5 mg/mL in 0.9% saline, at 24 hours): Some discoloration
- appearance ([2]; pH 5.7): Some discoloration
- time for which solution maintains clarity ([2]; pH adjusted to pH 7 in saline using NaOH): at least 12 hours
- stability in solution ([2]; reconstituted in 20% or 50% w/v HPCD, diluted into saline at 5 mg/mL): does not fall out of solution for at least one month
